According to patent US9512440B2, “Modulation of receptor-like kinases for promotion of plant growth” (IOWA STATE UNIVERSITY RESEARCH FOUNDATION, INC., priority 2009, dated 2016):

What was measured:
HERK1, THE1 and FER = assay: quantitative RT-PCR of HERK1, THE1 and FER expression after hormone treatment; type: in vivo, Arabidopsis thaliana
Excerpt: (1A) The expression of HERK1, THE1 and FER is induced by BL treatment in 10-day-old seedlings and 4-week-old adult plants. Triplicate biological samples were used to prepare RNA for quantitative RT PCR. The relative expression levels compared to UBQ5 gene were used to determine the BL-induction levels of each gene. The averages and standard deviations from three biological repeats are shown. […] Ten-day-old seedlings were used to prepare RNA for qRT-PCR as described in (1A). (1C-E) HERK1 cellular localization: A HERK1-GFP (1C) or BES1-D-GFP (1D) construct was introduced into protoplasts or transgenic plants (1E). HERK1 is mostly localized at the plasma membrane (1C and 1E), while BES1-D is primarily in the nucleus (1D). […] Recombinant proteins fused with MBP representing the wild-type HERK1 kinase domain (WT), and a mutant version with disrupted kinase activity (mutant), were used in kinase assay. […] The bars in 1G/1H and 1I represent 2.5 and 10 mm, respectively.
(8A) Regulation of HERK1, THE1 and FER as well as other CrRLK family members by BL. The data are derived from microarray experiments with light-growing seedlings treated with 10 nM BL for 3 hr, which is published in a public website (http://bbc.botany.utoronto.ca/efp/cgi-bin/efpWeb.cgi). […] The averages and standard deviations for 2 biological replicates are shown. (8C) the herk1 the1 double mutant has a normal GA response in a hypocotyl elongation assay. […]
For reverse transcription-polymerase chain reaction (RT-PCR), 2 μg total RNA was reverse-transcribed to cDNA by SuperScript II Reverse Transcriptase (Invitrogen). For real-time quantitative RT-PCR, the primers were designed so that the products are between 200-300 bps. The SYBR Green PCR Master mix (Applied Biosystems) was used and the PCR reactions were run on the Mx4000® multiplex quantitative PCR system (Stratagene). Two or three biological replicates were each analyzed with 2-3 RT-PCR reactions. For semi-quantitative RT-PCR, the same amount of cDNA was used for each PCR reaction. […]

[1] = system: wild-type 24-day-old adult plants; assay: Affymetrix microarray gene expression, wild-type adult plants with BL; type: in vivo, Arabidopsis thaliana
Experimental: (§1) Microarray experiments were performed with 24-day-old adult plants. The whole plants were sprayed with either water or […] and incubate for 2.5 hours. The plants were pooled into three groups as triplicates (8 plants per group). Total RNA was prepared with RNeasy Plant Mini Kit (QIAGEN) and used to make probes for microarray experiments with Affymetrix Arabidopsis Genomic arrays. The probe labeling, hybridization, and scanning were performed according to manufacture's instructions. Microarray data was normalized by the MAS 5.0 method implemented in the R package affy and the linear model was applied to two sample comparison (samples with and without BL treatment or WT compared to mutant) using the limma package (39, 40). Genes with an adjusted p-value <=0.01 were considered to be differentially expressed. The BR-induced genes, HERK1/THE regulated genes were used for clustering analysis with the GENESPRING program (Silicon Genetics) using Pearson Correlation.

[2] = system: herk1 the1 double mutant 24-day-old adult plants; assay: Affymetrix microarray gene expression, herk1 the1 double mutant adult plants with BL; type: in vivo, Arabidopsis thaliana
Experimental: as §1

CrRLK1L family RLKs = assay: microarray of CrRLK1L family expression, 2-week-old seedlings with or without BL; type: in vivo, Arabidopsis thaliana; settings: wild-type (En-2), BL 1 uM, 3 hr
Experimental: (9A) The expression of CrRLK family RLKs by BL in WT and bes1-D mutant. Microarrays were performed with 2-week-old seedlings with or without BL treatment (1 uM, 3 hr). At5g38990 and At5g39000 have the same probe set in Affymetrix ATH1 Genome arrays, so only the former is shown. (9B) BR responses of the indicated mutants at the seedling stage, performed as described. (9C) Plant phenotypes of 24-day-old adult plants. The bar represents 10 mm. (9D) Petiole lengths of the sixth leaf in WT and mutants. Averages and standard deviations from 10 plants are shown. (E) A model for HERK signaling and its crosstalk with BR pathway.
BRs function to regulate cell elongation and many other processes^10-13. BRs signal through a membrane-localized receptor kinase BRI1 and other signaling components^10, 14-16 to control BES1 and BZR1 family transcription factors, which mediate the expression of many genes for BR responses^17-20. […] To further confirm that these RLK genes are modulated by BRs and/or BES1, we performed a microarray experiment with bes-D mutant^19, a constitutive BR response mutant due to highly accumulated BES1 protein, with En-2 as wild-type control (L.L. & Y.Y. in preparation). The expression of all CrRLK1L members is examined (FIG. 5A).

CrRLK family members = settings: 10 nM BL for 3 hr; cited from earlier work
[3] = adult plants, microarray, adjusted p-value <=0.01

CC(C)[C@H](C)[C@@H](O)[C@H](O)[C@@H](C)[C@H]1CC[C@H]2[C@@H]3COC(=O)[C@H]4C[C@H](O)[C@H](O)C[C@]4(C)[C@H]3CC[C@]12C [BL, brassinolide]
up-regulation of HERK1, THE1 and FER expression (HERK1, THE1 and FER; seedlings and/or adult plants, relative to UBQ5, p<0.01): 20-80% | gene expression level At3g45960 (EXPL3) ([1]; WT + BL, WT-BL 24): 92 | gene expression level AT1G10550 (XTH33) ([1]; WT + BL, WT-BL 47): 223 | gene expression level At1g65310 (XTH17) ([1]; WT + BL, WT-BL 137): 214 | gene expression level At1g20190 (EXP11) ([1]; WT + BL, WT-BL 141): 395 | gene expression level At4g30290 (XTH19) ([1]; WT + BL, WT-BL 153): 297 | gene expression level At4g38400 (EXPL2) ([1]; WT + BL, WT-BL 188): 433 | gene expression level At2g20750 (EXPB1) ([1]; WT + BL, WT-BL 295): 198 | gene expression level At2g37640 (EXP3) ([1]; WT + BL, WT-BL 384): 641 | gene expression level At3g07010 (PLL20) ([1]; WT + BL, WT-BL 427): 939 | gene expression level AT1G11545 (XTH8) ([1]; WT + BL, WT-BL 453): 1178 | gene expression level At3g23730 (XTH16) ([1]; WT + BL, WT-BL 559): 819 | gene expression level At3g45970 (EXPL1) ([1]; WT + BL, WT-BL 581): 1339 | gene expression level At2g40610 (EXP8) ([1]; WT + BL, WT-BL 1006): 2407 | gene expression level AT5G57560 (XTH22) ([1]; WT + BL, WT-BL 2277): 7344 | gene expression level At3g29030 (EXP5) ([1]; WT + BL, WT-BL 2323): 2112 | gene expression level At1g04680 (PLL26) ([1]; WT + BL, WT-BL 2466): 3402 | gene expression level At4g37800 (XTH7) ([1]; WT + BL, WT-BL 2899): 3419 | gene expression level At2g28950 (EXP6) ([1]; WT + BL, WT-BL 3287): 2524 | gene expression level At1g69530 (EXP1) ([1]; WT + BL, WT-BL 6798): 8465 | gene expression level At2g06850 (XTH4) ([1]; WT + BL, WT-BL 7247): 13455 | number of genes whose expression BL induces [1, 3]: 650 | number of genes whose expression BL represses [1, 3]: 520 | gene expression level At3g45960 (EXPL3) ([2]; herk1 the1-BL 18): 44 | gene expression level At1g20190 (EXP11) ([2]; herk1 the1-BL 35): 225 | gene expression level AT1G10550 (XTH33) ([2]; herk1 the1-BL 48): 191 | gene expression level At1g65310 (XTH17) ([2]; herk1 the1-BL 95): 302 | gene expression level At4g38400 (EXPL2) ([2]; herk1 the1-BL 151): 381 | gene expression level At2g20750 (EXPB1) ([2]; herk1 the1-BL 161): 157 | gene expression level At4g30290 (XTH19) ([2]; herk1 the1-BL 162): 259 | gene expression level At3g07010 (PLL20) ([2]; herk1 the1-BL 325): 829 | gene expression level At2g37640 (EXP3) ([2]; herk1 the1-BL 340): 594 | gene expression level AT1G11545 (XTH8) ([2]; herk1 the1-BL 357): 1249 | gene expression level At2g40610 (EXP8) ([2]; herk1 the1-BL 437): 1586 | gene expression level At3g45970 (EXPL1) ([2]; herk1 the1-BL 529): 970 | gene expression level At3g23730 (XTH16) ([2]; herk1 the1-BL 636): 1069 | gene expression level At3g29030 (EXP5) ([2]; herk1 the1-BL 1523): 1848 | gene expression level At4g37800 (XTH7) ([2]; herk1 the1-BL 1831): 2864 | gene expression level At1g04680 (PLL26) ([2]; herk1 the1-BL 1982): 2932 | gene expression level At2g28950 (EXP6) ([2]; herk1 the1-BL 2074): 1919 | gene expression level AT5G57560 (XTH22) ([2]; herk1 the1-BL 2728): 7941 | gene expression level At1g69530 (EXP1) ([2]; herk1 the1-BL 3595): 6462 | gene expression level At2g06850 (XTH4) ([2]; herk1 the1-BL 5096): 11194 | regulation of FER, THE1, HERK1, At1g30570 (HERK2), At2g39360 and At5g24010 (CrRLK1L family RLKs): slightly upregulated | induction of HERK1, THE1 and FER among CrRLK family members (CrRLK family members): most highly induced | regulation of At2g39360, At5g24010, At1g30570, At5g38990/At5g39000 and At5g39020 (CrRLK family members): slightly induced

C=C1C[C@]23C[C@@]1(O)CC[C@H]2[C@@]12C=C[C@H](O)[C@@](C)(C(=O)O1)[C@H]2[C@@H]3C(=O)O [GA3]
regulation of expression of HERK1, THE1, and FER (HERK1, THE1 and FER; 10-day-old seedlings, qRT-PCR): up-regulates

O=C(O)Cc1c[nH]c2ccccc12 [IAA]
regulation of expression of HERK1 (HERK1, THE1 and FER; 10-day-old seedlings, qRT-PCR): appears to induce
